From ChEMBL document CHEMBL1201862, “PubChem BioAssay data set” (2004)
Activity calls are given as the source filed them.

What was measured:
BJ [1] = test: BJ-TERT fibroblast viability loss – cell-based, RAS-independent, luminescence, dose response (AID 1933); type: functional; details: Homo sapiens
[2] = target: Latent membrane protein 1 (Human herpesvirus 4 (strain B95-8), UniProt P03230); test: LMP1 TES1 pathway selectivity over dsRED control – imaging, HEK293T, dual-color eGFP/dsRED, cherry-picks, selectivity assay for LMP1 NF-kB inhibitor project, dose response (AID 588398); type: functional, cell-based
BJ [3] = test: cells; type: functional, cell-based; details: Homo sapiens
BJ [4] = test: BJ-TERT-LT-ST fibroblast viability loss – cell-based, RAS-independent, luminescence, dose response (AID 1935); type: functional; details: Homo sapiens;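 further: BJ fibroblasts immortalized with TERT plus LT and ST oncogenes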
[5] = DRD fibroblast viability loss – cell-based, non-viral oncogenic, luminescence, dose response (AID 1934); type: functional; details: Homo sapiens
Phospholipase A2 = Phospholipase A2 (Homo sapiens, UniProt P04054); type: functional;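 further: confirmatory dose-response counterscreen on phospholipase A2, testing hits that came from an ultra-high-throughput screen for ATG4B inhibitors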
Cysteine protease ATG4B = Cysteine protease ATG4B (Homo sapiens, UniProt Q9Y4P1); type: functional;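 further: Fluorescence-based dose-response confirmation assay measuring inhibition of ATG4B activity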
HEK293 [6] = test: NOD2 signaling inhibitors in MDP-stimulated cells, cell-based, uHTS, luminescence (AID 2001); type: functional; details: Homo sapiens
H4 [7] = test: Inhibitors of Prion Protein 5' UTR mRNA Measured in Cell-Based System Using Plate Reader - 2078-01_Inhibitor_Dose_DryPowder_Activity. [Related pubchem assays (depositor defined):AID488894]; type: functional; details: Homo sapiens
[8] = Luminescence-based counterscreen assay for KLF5 inhibitors: dose response cell-based high throughput screening assay to identify cytotoxic compounds using the IEC-6 intestinal epithelial cell line. [Related pubchem assays: 1700 (Primary screen.), 1834 (Confirmation screen.), 1858 (Summary AID.), 1905 (Counterscreen.)]; type: functional
HEK293 [9] = test: cells; type: functional, cell-based; details: Homo sapiens
[10] = target: Nucleotide-binding oligomerization domain-containing protein 2 (Homo sapiens, UniProt Q9HC29); test: inhibition of NOD2-driven NF-kB reporter – cell-based, luminescence, uHTS, HEK293 (AID 1566); type: functional
H4 [11] = test: inhibitors of control reporter signal in H4 cells – cell-based, plate reader, dry powder samples, counter-screen for prion reporter project, dose response (AID 540255); type: functional; details: Homo sapiens
[12] = HEK-293T viability loss after treatment – luminescence, T-cell screen hits, cytotoxicity control for TCR NF-kB inhibitor project, dose response (AID 489026); type: functional, cell-based;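 further: cells exposed to compound about 14 hours before the viability readout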
HEK293 [13] = test: cells; type: functional, cell-based; details: Homo sapiens; remark: listed apart in the source
Tumor necrosis factor = Tumor necrosis factor (Homo sapiens, UniProt P01375); test: analog potency on TNFa NF-kB signaling – cell-based, revised, SAR follow-up (AID 2337); type: functional
HEK293 [14] = test: cells; type: functional, cell-based; details: Homo sapiens; remark: listed apart in the source
HEK293 [15] = test: cells; details: Homo sapiens
[16] = target: T1, Nucleotide-binding oligomerization domain-containing protein 1 (Homo sapiens, UniProt Q9Y239); test: blockers of NOD1 pathway activity – revised, SAR follow-up (AID 2333); type: functional
T1 sequence (Q9Y239 whole entry): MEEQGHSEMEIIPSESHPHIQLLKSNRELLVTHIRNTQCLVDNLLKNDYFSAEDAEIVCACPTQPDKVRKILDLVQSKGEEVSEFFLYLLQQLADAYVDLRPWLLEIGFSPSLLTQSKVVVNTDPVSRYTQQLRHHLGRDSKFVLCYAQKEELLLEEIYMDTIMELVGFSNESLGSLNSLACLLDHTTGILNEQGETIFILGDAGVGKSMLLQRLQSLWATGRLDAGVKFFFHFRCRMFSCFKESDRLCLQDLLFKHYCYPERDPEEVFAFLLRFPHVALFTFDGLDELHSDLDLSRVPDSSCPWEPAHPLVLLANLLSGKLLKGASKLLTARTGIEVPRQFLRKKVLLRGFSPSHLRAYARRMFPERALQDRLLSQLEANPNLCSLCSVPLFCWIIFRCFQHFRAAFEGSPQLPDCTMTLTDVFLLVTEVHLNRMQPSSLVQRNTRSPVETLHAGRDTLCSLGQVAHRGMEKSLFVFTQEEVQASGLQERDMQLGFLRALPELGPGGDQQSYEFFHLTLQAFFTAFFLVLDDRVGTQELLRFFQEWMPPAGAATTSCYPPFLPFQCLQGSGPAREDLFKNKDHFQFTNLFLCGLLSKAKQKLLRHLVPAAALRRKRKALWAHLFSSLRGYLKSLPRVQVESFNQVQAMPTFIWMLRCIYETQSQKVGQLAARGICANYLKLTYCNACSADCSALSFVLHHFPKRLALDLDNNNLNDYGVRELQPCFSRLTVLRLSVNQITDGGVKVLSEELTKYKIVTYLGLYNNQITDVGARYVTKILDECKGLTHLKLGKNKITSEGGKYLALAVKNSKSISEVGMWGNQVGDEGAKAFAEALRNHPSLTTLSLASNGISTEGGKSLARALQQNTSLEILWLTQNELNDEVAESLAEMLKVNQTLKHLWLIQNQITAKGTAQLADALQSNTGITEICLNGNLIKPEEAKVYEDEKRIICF

HEK293 [17] = test: inhibition of NOD1-driven NF-kB reporter – cell-based, luminescence, uHTS, primary screen (AID 1578); type: functional; details: Homo sapiens
[18] = target: Polyadenylate-binding protein 1 (Homo sapiens, UniProt P11940); test: blockers of PABP interaction with poly(A) – biochemical, fluorescence polarization, […] (AID 2014)
[19] = target: Induced myeloid leukemia cell differentiation protein Mcl-1 (Homo sapiens, UniProt Q07820); type: functional
[20] = target: Beta-adrenergic receptor kinase 1 (Homo sapiens, UniProt P25098); test: aptamer displacement from bead-bound GRK2 – biochemical, cherry pick 1, bead flow cytometry, dose response (AID 504500)
[21] = target: Eukaryotic translation initiation factor 4H (Homo sapiens, UniProt Q15056); test: eIF4H binding inhibition – biochemical, uHTS, fluorescence polarization, translation initiation inhibitor project, primary screen (AID 2012)
[22] = target: T2, Apoptotic protease-activating factor 1 (Homo sapiens, UniProt O14727); test: activation of Apaf-1 mediated apoptosis – fluorescent, uHTS hits, dose response (AID 588554); type: functional
T2 sequence (O14727 whole entry): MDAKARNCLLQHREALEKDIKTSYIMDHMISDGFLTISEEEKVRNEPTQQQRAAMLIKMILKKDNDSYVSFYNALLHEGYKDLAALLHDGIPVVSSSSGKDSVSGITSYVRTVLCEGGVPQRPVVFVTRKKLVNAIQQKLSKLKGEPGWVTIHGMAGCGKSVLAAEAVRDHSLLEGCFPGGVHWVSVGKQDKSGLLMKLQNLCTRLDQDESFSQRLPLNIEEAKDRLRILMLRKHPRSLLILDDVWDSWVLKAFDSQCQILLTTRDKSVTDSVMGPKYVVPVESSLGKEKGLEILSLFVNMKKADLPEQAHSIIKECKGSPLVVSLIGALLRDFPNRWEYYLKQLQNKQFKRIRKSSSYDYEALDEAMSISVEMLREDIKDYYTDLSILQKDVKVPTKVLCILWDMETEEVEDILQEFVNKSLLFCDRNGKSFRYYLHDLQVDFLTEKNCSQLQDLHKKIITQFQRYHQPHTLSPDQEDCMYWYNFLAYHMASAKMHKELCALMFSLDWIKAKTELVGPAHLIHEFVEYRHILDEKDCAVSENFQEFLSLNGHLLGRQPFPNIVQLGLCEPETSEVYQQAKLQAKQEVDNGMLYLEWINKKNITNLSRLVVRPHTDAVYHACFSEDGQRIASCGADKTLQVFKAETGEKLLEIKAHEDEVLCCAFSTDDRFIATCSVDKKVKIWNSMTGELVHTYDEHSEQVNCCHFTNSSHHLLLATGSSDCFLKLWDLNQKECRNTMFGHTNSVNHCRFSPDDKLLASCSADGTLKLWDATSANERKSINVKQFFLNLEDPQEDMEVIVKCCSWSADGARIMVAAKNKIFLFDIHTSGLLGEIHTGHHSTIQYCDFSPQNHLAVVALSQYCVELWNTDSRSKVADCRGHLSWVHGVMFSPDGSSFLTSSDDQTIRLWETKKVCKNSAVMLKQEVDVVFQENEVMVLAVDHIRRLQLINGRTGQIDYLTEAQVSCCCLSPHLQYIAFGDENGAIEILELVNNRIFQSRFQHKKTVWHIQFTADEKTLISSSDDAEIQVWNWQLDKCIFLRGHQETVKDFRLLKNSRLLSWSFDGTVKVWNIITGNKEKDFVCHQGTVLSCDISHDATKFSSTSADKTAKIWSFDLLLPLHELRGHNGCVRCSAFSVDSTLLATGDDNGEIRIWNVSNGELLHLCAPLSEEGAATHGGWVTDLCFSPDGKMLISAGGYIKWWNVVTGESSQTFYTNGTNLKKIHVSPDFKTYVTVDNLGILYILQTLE

[23] = Mcl1-dependent cancer cell viability – HMC-1-8 cells, luminescence, dry powder, selectivity assay for A1 inhibitor project, dose response (AID 504415); type: functional, cell-based; details: Homo sapiens
Jurkat = test: SAR Analysis of small molecule inhibitors of T-cell specific antigen receptor-induced NF-kB activation in a Jurkat cell line using a luminescence assay. [Related pubchem assays (depositor defined):AID435003, AID435012, AID465]; type: functional, cell-based; details: Homo sapiens
HEK293 [24] = test: SAR Analysis of small molecule inhibitors of T-cell specific antigen receptor-induced NF-kB activation in a HEK-293T cell line using a luminescence assay. [Related pubchem assays (depositor defined):AID435003, AID435012, AID489026]; type: functional, cell-based; details: Homo sapiens
HEK293 [25] = test: HEK293T cell viability loss, resazurin readout – resazurin fluorescence, cytotoxicity control for NF-kB activator project, SAR follow-up (AID 493251); type: functional, cell-based; details: Homo sapiens

Induced myeloid leukemia cell differentiation protein Mcl-1, sequence (Q07820 whole entry): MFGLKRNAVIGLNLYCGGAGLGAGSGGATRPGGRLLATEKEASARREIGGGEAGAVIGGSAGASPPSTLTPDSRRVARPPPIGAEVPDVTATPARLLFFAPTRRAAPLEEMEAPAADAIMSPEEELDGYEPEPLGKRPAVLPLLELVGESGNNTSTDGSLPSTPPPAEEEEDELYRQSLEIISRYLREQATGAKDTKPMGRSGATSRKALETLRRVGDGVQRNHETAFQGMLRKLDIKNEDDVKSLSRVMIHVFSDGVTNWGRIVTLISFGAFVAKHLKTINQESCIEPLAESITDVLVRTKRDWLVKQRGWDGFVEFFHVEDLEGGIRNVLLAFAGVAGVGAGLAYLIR
Cysteine protease ATG4B, sequence (Q9Y4P1 whole entry): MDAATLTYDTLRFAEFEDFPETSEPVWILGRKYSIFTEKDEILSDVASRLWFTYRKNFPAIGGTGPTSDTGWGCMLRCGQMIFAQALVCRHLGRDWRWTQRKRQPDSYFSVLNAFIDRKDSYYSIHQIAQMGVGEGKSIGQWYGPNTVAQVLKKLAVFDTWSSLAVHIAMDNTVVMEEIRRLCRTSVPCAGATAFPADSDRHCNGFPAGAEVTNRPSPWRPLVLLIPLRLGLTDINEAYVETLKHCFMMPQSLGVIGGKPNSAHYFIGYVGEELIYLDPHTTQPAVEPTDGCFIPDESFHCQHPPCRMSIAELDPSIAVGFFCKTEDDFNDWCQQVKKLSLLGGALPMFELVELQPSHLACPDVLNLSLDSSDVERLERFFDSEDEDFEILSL
Latent membrane protein 1, sequence (P03230 whole entry): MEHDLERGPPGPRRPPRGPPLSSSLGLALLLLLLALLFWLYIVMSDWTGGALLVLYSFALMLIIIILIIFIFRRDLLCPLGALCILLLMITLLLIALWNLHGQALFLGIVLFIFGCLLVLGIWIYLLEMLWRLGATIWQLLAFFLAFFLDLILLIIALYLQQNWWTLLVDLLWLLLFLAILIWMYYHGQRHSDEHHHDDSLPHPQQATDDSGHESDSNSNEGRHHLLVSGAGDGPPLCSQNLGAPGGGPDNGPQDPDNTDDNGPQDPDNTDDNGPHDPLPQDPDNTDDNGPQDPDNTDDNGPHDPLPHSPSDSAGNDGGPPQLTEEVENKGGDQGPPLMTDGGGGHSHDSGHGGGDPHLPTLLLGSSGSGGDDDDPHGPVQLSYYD
Polyadenylate-binding protein 1, sequence (P11940 whole entry): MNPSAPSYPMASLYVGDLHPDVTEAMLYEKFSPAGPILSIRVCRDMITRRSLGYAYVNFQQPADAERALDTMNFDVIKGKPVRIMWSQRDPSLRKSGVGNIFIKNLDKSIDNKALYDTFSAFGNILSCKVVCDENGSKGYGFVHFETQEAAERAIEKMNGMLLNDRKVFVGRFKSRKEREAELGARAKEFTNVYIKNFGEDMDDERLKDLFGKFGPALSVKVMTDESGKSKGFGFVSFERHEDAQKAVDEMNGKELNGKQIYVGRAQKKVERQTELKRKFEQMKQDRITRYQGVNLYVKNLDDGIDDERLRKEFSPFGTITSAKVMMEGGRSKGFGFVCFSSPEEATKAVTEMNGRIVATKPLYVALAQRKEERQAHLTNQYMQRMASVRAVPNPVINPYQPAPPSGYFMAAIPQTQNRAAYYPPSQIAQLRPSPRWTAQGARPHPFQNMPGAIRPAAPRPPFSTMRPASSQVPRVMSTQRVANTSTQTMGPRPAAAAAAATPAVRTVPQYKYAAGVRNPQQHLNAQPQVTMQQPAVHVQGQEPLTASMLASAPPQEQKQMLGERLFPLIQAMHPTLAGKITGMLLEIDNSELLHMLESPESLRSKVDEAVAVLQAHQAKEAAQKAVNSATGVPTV
Phospholipase A2, sequence (P04054 whole entry): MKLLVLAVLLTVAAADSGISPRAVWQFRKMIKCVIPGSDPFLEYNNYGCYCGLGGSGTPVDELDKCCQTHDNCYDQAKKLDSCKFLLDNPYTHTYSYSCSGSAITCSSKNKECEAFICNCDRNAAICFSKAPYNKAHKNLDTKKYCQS
Beta-adrenergic receptor kinase 1, sequence (P25098 whole entry): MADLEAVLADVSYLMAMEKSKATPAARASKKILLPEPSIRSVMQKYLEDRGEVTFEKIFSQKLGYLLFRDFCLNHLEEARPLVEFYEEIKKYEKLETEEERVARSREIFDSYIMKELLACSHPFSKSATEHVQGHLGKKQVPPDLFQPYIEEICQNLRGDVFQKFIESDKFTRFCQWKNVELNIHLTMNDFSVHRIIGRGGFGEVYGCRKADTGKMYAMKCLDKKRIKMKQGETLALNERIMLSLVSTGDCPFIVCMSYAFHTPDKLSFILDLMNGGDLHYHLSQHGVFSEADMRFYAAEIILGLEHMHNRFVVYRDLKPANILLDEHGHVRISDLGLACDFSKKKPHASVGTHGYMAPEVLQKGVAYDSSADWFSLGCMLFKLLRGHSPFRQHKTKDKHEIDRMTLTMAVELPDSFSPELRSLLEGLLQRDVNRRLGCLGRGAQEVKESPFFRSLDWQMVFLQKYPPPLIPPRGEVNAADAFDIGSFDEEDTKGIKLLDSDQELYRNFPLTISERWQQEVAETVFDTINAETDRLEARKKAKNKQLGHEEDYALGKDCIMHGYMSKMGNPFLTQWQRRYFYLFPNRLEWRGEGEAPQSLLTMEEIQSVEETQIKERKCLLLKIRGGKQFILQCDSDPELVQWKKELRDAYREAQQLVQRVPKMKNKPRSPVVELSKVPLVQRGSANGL
Nucleotide-binding oligomerization domain-containing protein 2, sequence (Q9HC29 whole entry, the tested form may be a part): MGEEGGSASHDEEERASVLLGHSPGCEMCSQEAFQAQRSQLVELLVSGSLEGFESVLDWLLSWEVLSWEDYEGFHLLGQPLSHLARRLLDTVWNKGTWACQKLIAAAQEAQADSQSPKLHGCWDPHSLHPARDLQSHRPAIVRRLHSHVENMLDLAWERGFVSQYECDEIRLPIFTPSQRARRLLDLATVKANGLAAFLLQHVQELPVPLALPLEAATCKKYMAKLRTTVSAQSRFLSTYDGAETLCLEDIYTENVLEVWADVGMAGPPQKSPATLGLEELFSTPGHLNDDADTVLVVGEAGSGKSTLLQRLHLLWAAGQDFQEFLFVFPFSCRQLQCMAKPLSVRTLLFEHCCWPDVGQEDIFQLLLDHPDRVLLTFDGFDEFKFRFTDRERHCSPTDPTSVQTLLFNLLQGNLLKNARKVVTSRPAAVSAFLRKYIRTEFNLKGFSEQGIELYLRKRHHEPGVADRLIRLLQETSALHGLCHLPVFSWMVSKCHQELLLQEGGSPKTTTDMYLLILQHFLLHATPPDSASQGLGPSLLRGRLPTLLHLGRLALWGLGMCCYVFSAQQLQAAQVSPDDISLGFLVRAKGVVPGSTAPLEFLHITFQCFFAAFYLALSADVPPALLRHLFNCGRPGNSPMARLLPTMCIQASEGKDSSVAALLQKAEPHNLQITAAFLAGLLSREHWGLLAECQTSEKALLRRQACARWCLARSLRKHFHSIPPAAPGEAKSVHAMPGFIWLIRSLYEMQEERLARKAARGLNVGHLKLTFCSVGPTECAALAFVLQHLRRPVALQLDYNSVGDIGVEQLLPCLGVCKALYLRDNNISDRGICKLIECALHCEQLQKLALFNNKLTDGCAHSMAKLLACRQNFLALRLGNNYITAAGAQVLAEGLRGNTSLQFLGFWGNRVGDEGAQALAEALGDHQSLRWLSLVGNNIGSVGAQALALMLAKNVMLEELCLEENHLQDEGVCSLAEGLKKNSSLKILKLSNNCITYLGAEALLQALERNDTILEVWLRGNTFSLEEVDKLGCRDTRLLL
Tumor necrosis factor, sequence (P01375 whole entry): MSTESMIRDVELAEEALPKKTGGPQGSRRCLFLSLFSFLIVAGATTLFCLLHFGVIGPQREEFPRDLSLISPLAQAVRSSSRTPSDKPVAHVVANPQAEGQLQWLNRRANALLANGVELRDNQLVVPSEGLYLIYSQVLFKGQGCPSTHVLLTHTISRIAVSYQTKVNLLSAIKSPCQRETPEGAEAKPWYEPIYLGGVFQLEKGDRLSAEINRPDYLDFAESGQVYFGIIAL

CCOc1ccc(C(C)=O)cc1COc1cccnc1[N+](=O)[O-]
EC50 (BJ [1]): 23.1 µM (active) | AC50 [2]: 80.9 µM (active) | EC50 (BJ [3]): 32.2 µM (active) | EC50 (BJ [4]): > 150 µM (inconclusive) | EC50 [5]: 21.9 µM (active)

CC(C)c1ccc(NC2CCCN(C(=O)c3cc(C(C)C)n[nH]3)C2)cc1 (centres undefined)
IC50 (Phospholipase A2): 12.2 µM (active) | IC50 (Cysteine protease ATG4B): 16.8 µM (active)

CC(C)(C)c1ccc(C(=O)O/N=C(\N)c2ccccn2)cc1
IC50 (HEK293 [6]): 3.04 µM (active) | AC50 (H4 [7]): 0.032 µM (active) | IC50 [8]: 23.1 µM (not active) | IC50 (HEK293 [9]): > 20 µM (inactive) | EC50 [10]: 0.04 µM (active) | AC50 (H4 [11]): 0.034 µM (active) | IC50 [12]: > 80 µM (inactive) | IC50 (HEK293 [13]): < 0.312 µM (active) | IC50 (Tumor necrosis factor): 0.952 µM (active) | IC50 (HEK293 [14]): > 20 µM (inactive) | IC50 (HEK293 [15]): > 20 µM (inactive) | IC50 [16]: 2 µM (active) | EC50 (HEK293 [17]): 2.73 µM (active)

C=C(C)C(=O)Nc1cccc(C2=NOC3(C2)C[C@@H](C(N)=O)N(C(=O)c2ccc(Cl)cc2)C3)c1 (some centres undefined)
IC50 [18]: 9.01 µM (active) | IC50 [19]: 1.54 µM (active) | EC50 [20]: 0.73 µM (active) | IC50 [21]: 0.7 µM (active) | EC50 [22]: 2.35 µM (active)

O=c1oc2ccccc2c(Sc2ccccc2)c1[N+](=O)[O-]
AC50 [23]: 56.1 µM (active)

COc1ccc(C(NC(C)=O)c2ccc3cccnc3c2O)cc1 (centres undefined)
IC50 (Jurkat): 4.23 µM (active) | IC50 (HEK293 [24]): 6.35 µM (active) | IC50 (HEK293 [25]): 16.5 µM (active)
